± gives the standard deviation of the averaged measurements.
What was measured:
Test in all cases: level (log10 ratio to DMSO vehicle control); higher = higher biomarker level / cell amount than vehicle control
[1] = compound: O=S(=O)(Cl)C(F)(F)C(F)(F)C(F)(F)C(F)(F)C(F)(F)C(F)(F)C(F)(F)C(F)(F)F [Perfluoro-1-octanesulfonyl chloride]; conditions: in DMSO
Experimental: (§1)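 BioMAP Diversity Plus panel of 12 human primary cell co-culture systems (3C, 4H, LPS, SAg, BT, BF4T, BE3C, CASM3C, HDF3CGF, KF3CT, MyoF, Mphg). Compounds were added 1 h before stimulation and left for 24 h (MyoF 48 h; BT 72 h for soluble read-outs or 6 d for IgG). Biomarkers were read by ELISA, cytotoxicity by SRB, PBMC viability and proliferation by Alamar Blue. Each well value was divided by the mean of 8 DMSO control wells on the same plate and log10 transformed; duplicate blinded samples were tested at 4 concentrations.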

[2] = compound: NC(=O)C(F)(F)C(F)(F)C(F)(F)C(F)(F)C(N)=O [Octafluoroadipamide]; conditions: in DMSO
Experimental: as §1

[3] = compound: FC(F)(F)C(F)(F)C(F)(F)CI [Heptafluorobutyl iodide]; conditions: in DMSO
Experimental: as §1

[4] = compound: C=CC(=O)OCC(F)(F)C(F)(F)C(F)(F)COC(=O)C=C [1H,1H,5H,5H-Perfluoro-1,5-pentanediol diacrylate]; conditions: 6700 nM; in DMSO
Experimental: as §1

[5] = compound: NC(=O)C(F)(F)C(F)(F)C(F)(F)C(F)(F)F [Nonafluoropentanamide]; conditions: in DMSO
Experimental: as §1

[6] = compound: FC(F)(F)C(F)(F)C(F)(F)C(F)(F)C(F)(F)C(F)(F)C(F)(F)I [1-Iodopentadecafluoroheptane]; conditions: in DMSO
Experimental: as §1

[7] = compound: O=S(=O)(O)CCC(F)(F)C(F)(F)C(F)(F)C(F)(F)C(F)(F)C(F)(F)F [6:2 Fluorotelomer sulfonic acid]; conditions: in DMSO
Experimental: as §1

SAg:CD62E/E-Selectin was tested, and the “level (log10)” value ([1]; 6700 nM) was -0.0055 ± 0.013, the “level (log10)” value ([1]; 20000 nM) was 0.0155 ± 0.019 and the “level (log10)” value ([1]; 60000 nM) was 0.127 ± 0.016. The “level (log10)” value ([2]; 6700 nM) was 0.0015 ± 0.0078, the “level (log10)” value ([2]; 20000 nM) was 0.0065 ± 0.022 and the “level (log10)” value ([2]; 60000 nM) was 0.0185 ± 0.028. For the same test system, the “level (log10)” value ([3]; 6700 nM) was -0.0225 ± 0.026, the “level (log10)” value ([3]; 20000 nM) was 0.0065 ± 0.00071 and the “level (log10)” value ([3]; 60000 nM) was -0.025 ± 0.014. The “level (log10)” value [4] was -0.469 ± 0.1, the “level (log10)” value ([5]; 6700 nM) was -0.006 ± 0.018 and the “level (log10)” value ([5]; 20000 nM) was -0.0075 ± 0.00071. The “level (log10)” value ([5]; 60000 nM) was 0.009 ± 0.0042, the “level (log10)” value ([6]; 6700 nM) was -0.0415 ± 0.056 and the “level (log10)” value ([6]; 20000 nM) was -0.008 ± 0.044. The “level (log10)” value ([7]; 6700 nM) was -0.008 ± 0.0057, the “level (log10)” value ([7]; 20000 nM) was -0.007 ± 0.013 and the “level (log10)” value ([7]; 60000 nM) was 0.038 ± 0.013.
With SAg:CD69 the “level (log10)” value ([1]; 6700 nM) was -0.011 ± 0.0099, the “level (log10)” value ([1]; 20000 nM) was -0.049 ± 0.04 and the “level (log10)” value ([1]; 60000 nM) was -0.0795 ± 0.049. For the same test system, the “level (log10)” value ([2]; 6700 nM) was -0.0095 ± 0.011, the “level (log10)” value ([2]; 20000 nM) was -0.013 ± 0.018 and the “level (log10)” value ([2]; 60000 nM) was 0.002 ± 0.013. The “level (log10)” value ([3]; 6700 nM) was -0.0425 ± 0.043, the “level (log10)” value ([3]; 20000 nM) was -0.045 ± 0.03 and the “level (log10)” value ([3]; 60000 nM) was -0.032 ± 0.037. For the same test system, the “level (log10)” value [4] was -0.181 ± 0.073, the “level (log10)” value ([5]; 6700 nM) was -0.0095 ± 0.013 and the “level (log10)” value ([5]; 20000 nM) was -0.025 ± 0.0085. For the same test system, the “level (log10)” value ([5]; 60000 nM) was -0.008 ± 0.0042, the “level (log10)” value ([6]; 6700 nM) was -0.028 ± 0.0071 and the “level (log10)” value ([6]; 20000 nM) was -0.039 ± 0.0014. The “level (log10)” value ([7]; 6700 nM) was -0.0245 ± 0.059, the “level (log10)” value ([7]; 20000 nM) was -0.04 ± 0.024 and the “level (log10)” value ([7]; 60000 nM) was -0.04 ± 0.0057.
In the case of SAg:CXCL8/IL-8, the “level (log10)” value ([1]; 6700 nM) is reported as -0.011 ± 0.011, the “level (log10)” value ([1]; 20000 nM) is reported as 0.012 ± 0.0099 and the “level (log10)” value ([1]; 60000 nM) is reported as 0.093 ± 0.016. The “level (log10)” value ([2]; 6700 nM) was -0.001 ± 0.04, the “level (log10)” value ([2]; 20000 nM) was 0.0075 ± 0.015 and the “level (log10)” value ([2]; 60000 nM) was 0.02 ± 0.0014. The “level (log10)” value ([3]; 6700 nM) was -0.053 ± 0.04, the “level (log10)” value ([3]; 20000 nM) was -0.0345 ± 0.019 and the “level (log10)” value ([3]; 60000 nM) was -0.02 ± 0.072. For the same test system, the “level (log10)” value [4] was -0.259 ± 0.13, the “level (log10)” value ([5]; 6700 nM) was -0.0285 ± 0.039 and the “level (log10)” value ([5]; 20000 nM) was -0.027 ± 0.02. The “level (log10)” value ([5]; 60000 nM) was -0.0305 ± 0.076, the “level (log10)” value ([6]; 6700 nM) was -0.034 ± 0.035 and the “level (log10)” value ([6]; 20000 nM) was 0.0055 ± 0.073. The “level (log10)” value ([7]; 6700 nM) was -0.012 ± 0.025, the “level (log10)” value ([7]; 20000 nM) was 0.0325 ± 0.039 and the “level (log10)” value ([7]; 60000 nM) was 0.064 ± 0.03.
For SAg:CXCL9/MIG, the “level (log10)” value ([1]; 6700 nM) was -0.007 ± 0.0071, the “level (log10)” value ([1]; 20000 nM) was -0.018 ± 0.0028 and the “level (log10)” value ([1]; 60000 nM) was 0.0075 ± 0.021. For the same test system, the “level (log10)” value ([2]; 6700 nM) was 0, the “level (log10)” value ([2]; 20000 nM) was -0.0045 ± 0.0064 and the “level (log10)” value ([2]; 60000 nM) was -0.0005 ± 0.013. For the same test system, the “level (log10)” value ([3]; 6700 nM) was -0.007 ± 0.0028, the “level (log10)” value ([3]; 20000 nM) was -0.0025 ± 0.0021 and the “level (log10)” value ([3]; 60000 nM) was -0.0085 ± 0.0092. The “level (log10)” value [4] was 0.0025 ± 0.0078, the “level (log10)” value ([5]; 6700 nM) was 0.003 ± 0.014 and the “level (log10)” value ([5]; 20000 nM) was -0.0035 ± 0.013. For the same test system, the “level (log10)” value ([5]; 60000 nM) was 0.0185 ± 0.015, the “level (log10)” value ([6]; 6700 nM) was 0.006 ± 0.0071 and the “level (log10)” value ([6]; 20000 nM) was 0.02 ± 0.0042. For the same test system, the “level (log10)” value ([7]; 6700 nM) was -0.002 ± 0.018, the “level (log10)” value ([7]; 20000 nM) was -0.0035 ± 0.015 and the “level (log10)” value ([7]; 60000 nM) was -0.0045 ± 0.012.
With SAg:Proliferation the “level (log10)” value ([1]; 6700 nM) was 0.0235 ± 0.044, the “level (log10)” value ([1]; 20000 nM) was 0.0205 ± 0.04 and the “level (log10)” value ([1]; 60000 nM) was 0.0395 ± 0.036. The “level (log10)” value ([2]; 6700 nM) was 0.022 ± 0.035, the “level (log10)” value ([2]; 20000 nM) was -0.0255 ± 0.005 and the “level (log10)” value ([2]; 60000 nM) was 0.033 ± 0.0099. The “level (log10)” value ([3]; 6700 nM) was -0.056 ± 0.037, the “level (log10)” value ([3]; 20000 nM) was 0.029 ± 0.028 and the “level (log10)” value ([3]; 60000 nM) was -0.072 ± 0.0042. For the same test system, the “level (log10)” value [4] was -0.421 ± 0.035, the “level (log10)” value ([5]; 6700 nM) was -0.01 ± 0.052 and the “level (log10)” value ([5]; 20000 nM) was -0.05 ± 0.034. The “level (log10)” value ([5]; 60000 nM) was -0.0945 ± 0.1, the “level (log10)” value ([6]; 6700 nM) was 0.0055 ± 0.043 and the “level (log10)” value ([6]; 20000 nM) was -0.0105 ± 0.026. The “level (log10)” value ([7]; 6700 nM) was -0.019 ± 0.027, the “level (log10)” value ([7]; 20000 nM) was -0.0255 ± 0.023 and the “level (log10)” value ([7]; 60000 nM) was -0.0225 ± 0.0035.
With SAg:SRB the “level (log10)” value ([1]; 6700 nM) was -0.001 ± 0.0042, the “level (log10)” value ([1]; 20000 nM) was -0.0045 ± 0.011 and the “level (log10)” value ([1]; 60000 nM) was -0.107 ± 0.033. For the same test system, the “level (log10)” value ([2]; 6700 nM) was -0.011 ± 0.014, the “level (log10)” value ([2]; 20000 nM) was -0.0065 ± 0.022 and the “level (log10)” value ([2]; 60000 nM) was -0.0025 ± 0.0064. The “level (log10)” value ([3]; 6700 nM) was -0.007 ± 0.0099, the “level (log10)” value ([3]; 20000 nM) was -0.001 ± 0.0042 and the “level (log10)” value ([3]; 60000 nM) was 0.002 ± 0.011. For the same test system, the “level (log10)” value [4] was -0.0015 ± 0.012, the “level (log10)” value ([5]; 6700 nM) was -0.0025 ± 0.00071 and the “level (log10)” value ([5]; 20000 nM) was -0.0055 ± 0.00071. The “level (log10)” value ([5]; 60000 nM) was -0.0045 ± 0.0078, the “level (log10)” value ([6]; 6700 nM) was -0.007 ± 0.0042 and the “level (log10)” value ([6]; 20000 nM) was 0.0025 ± 0.0021. The “level (log10)” value ([7]; 6700 nM) was -0.012 ± 0.0057, the “level (log10)” value ([7]; 20000 nM) was -0.0045 ± 0.0021 and the “level (log10)” value ([7]; 60000 nM) was -0.0045 ± 0.021.

Source: the supplement of paper PMC10331698
